Results from ChEMBL document CHEMBL1147534, “Examination of the 1,4-disubstituted azetidinone ring system as a template for combretastatin A-4 conformationally restricted analogue design” (Bioorg Med Chem Lett, 2004).

Key:
IMR-32 = assay: In vitro cytotoxicity against human cancerous neuroblastoma cells (IMR-32); assay type: functional, cell-based
ACHN = assay: In vitro cytotoxicity against human renal adenocarcinoma (ACHN) tumor cell line; assay type: functional, cell-based
MCF7 [1] = assay: In vitro cytotoxicity against human breast carcinoma (MCF-7) tumor cell line; assay type: functional, cell-based
CFPAC-1 = assay: In vitro cytotoxicity against human pancreatic cancer (CFPAC-1) tumor cell line; assay type: functional, cell-based
T98G = assay: In vitro cytotoxicity against human glioblastoma (T-98G) tumor cell line; assay type: functional, cell-based
HCT-116 = assay: In vitro cytotoxicity against human colon carcinoma (HCT116) tumor cell line; assay type: functional, cell-based
MOLT-4 = assay: In vitro cytotoxicity against human leukemia (MOLT-4) cell line; assay type: functional, cell-based
DU-145 = assay: In vitro cytotoxicity against human Prostate carcinoma (DU145) tumor cell line; assay type: functional, cell-based
AR-42J cell line = assay: In vitro cytotoxicity against rat pancreatic (AR-42J) tumor cell line; assay type: functional, cell-based
NCI-H460 = assay: In vitro cytotoxicity against human lung carcinoma (NCI-H460) tumor cell line; assay type: functional, cell-based
CHO-K1 = assay: In vitro cytotoxicity against chinese hamster ovary (CHO-K1) tumor cell line; assay type: functional, cell-based, Cricetulus griseus
DLD-1 = assay: In vitro cytotoxicity against human colon adenocarcinoma (DLD-1) tumor cell line; assay type: functional, cell-based
HeLa = assay: In vitro cytotoxicity against human cervix adenocarcinoma (HeLa) tumor cell line; assay type: functional, cell-based
MCF7 [2] = assay: In vitro cytotoxicity against human cancerous cells (MCF-7) was determined; assay type: functional, cell-based
NCI-H69 = assay: In vitro cytotoxicity against human cancerous cells (NCI-H69) was determined; assay type: functional, cell-based

SMILES	IC50 (IMR-32; Homo sapiens, IMR-32)	IC50 (ACHN)	IC50 (MCF7 [1])	IC50 (CFPAC-1)	IC50 (T98G)	IC50 (HCT-116)	IC50 (MOLT-4)	IC50 (DU-145)	IC50 (AR-42J cell line)	IC50 (NCI-H460)	IC50 (CHO-K1; Cricetulus griseus, CHO-K1)	IC50 (DLD-1)	IC50 (HeLa)	further results
COc1ccc2cc(C3C(O)C(=O)N3c3cc(OC)c(OC)c(OC)c3)ccc2c1 (configuration not stated)	89 nM													
COc1cc(N2C(=O)C(OC(C)=O)C2c2ccc3c(c2)OCO3)cc(OC)c1OC (configuration not stated)	910 nM													
COc1ccc(N2C(=O)C(O)C2c2cc(OC)c(OC)c(OC)c2)cc1 (configuration not stated)	> 1000 nM													
COc1ccc2cc(C3C(OC(C)=O)C(=O)N3c3cc(OC)c(OC)c(OC)c3)ccc2c1 (configuration not stated)	> 1000 nM													
COc1cc(N2C(=O)C(OC)C2c2ccc3c(c2)OCO3)cc(OC)c1OC (configuration not stated)	> 1000 nM													
COc1ccc(C2C(OC)C(=O)N2c2cc(OC)c(OC)c(OC)c2)cc1N (configuration not stated)	> 1000 nM													
COc1ccc(C2C(OC(C)=O)C(=O)N2c2cc(OC)c(OC)c(OC)c2)cc1 (configuration not stated)	251 nM													
COc1cc(C2C(OC(C)=O)C(=O)N2c2ccc3c(c2)OCO3)cc(OC)c1OC (configuration not stated)		> 10000 nM	> 10000 nM	> 10000 nM	> 10000 nM	> 10000 nM	> 10000 nM	> 10000 nM	> 10000 nM	> 10000 nM	> 10000 nM	> 10000 nM	> 10000 nM	IC50 (IMR-32; imr-32): > 10000 nM
COc1cc(N2C(=O)C(OC(C)=O)C2c2ccc(N)o2)cc(OC)c1OC (configuration not stated)	> 1000 nM													
COc1cc(N2C(=O)C(O)C2c2ccc3c(c2)OCO3)cc(OC)c1OC (configuration not stated)	473 nM	2120 nM	544 nM	885 nM	800 nM	950 nM	398 nM	3160 nM	1480 nM	1440 nM	891 nM	905 nM	546 nM	IC50 (IMR-32; imr-32): 445 nM
COc1cc(N2C(=O)C(O)C2c2ccc([N+](=O)[O-])o2)cc(OC)c1OC (configuration not stated)	> 1000 nM													
COc1ccc(C2C(OC(C)=O)C(=O)N2c2cc(OC)c(OC)c(OC)c2)cc1N (configuration not stated)	73.1 nM	150 nM	70.5 nM	204 nM	145 nM	368 nM	372 nM	430 nM	219 nM	449 nM	462 nM	394 nM	262 nM	IC50 (CHO-K1; cho-k1): 509 nM; IC50 (MCF7 [2]): 200 nM; IC50 (NCI-H69): 41 nM
COc1ccc(C2C(O)C(=O)N2c2cc(OC)c(OC)c(OC)c2)cc1N (configuration not stated)	37 nM	91.2 nM	55 nM	50.2 nM	109 nM	140 nM	71.7 nM	380 nM	62.1 nM	184 nM	544 nM	130 nM	63.9 nM	IC50 (IMR-32; imr-32): 38.3 nM; IC50 (CHO-K1; cho-k1): 411 nM; IC50 (MCF7 [2]): 81 nM; IC50 (NCI-H69): 25 nM
COc1ccc(N2C(=O)C(OC(C)=O)C2c2cc(OC)c(OC)c(OC)c2)cc1 (configuration not stated)	> 1000 nM													
COc1ccc(C2C(OC(C)=O)C(=O)N2c2cc(OC)c(OC)c(OC)c2)cc1[N+](=O)[O-] (configuration not stated)	123 nM	595 nM	105 nM	197 nM	144 nM	526 nM	350 nM	479 nM	582 nM	393 nM	473 nM	326 nM	202 nM	
COc1ccc(C2C(O)C(=O)N2c2cc(OC)c(OC)c(OC)c2)cc1[N+](=O)[O-] (configuration not stated)	38 nM	29.2 nM	37.1 nM	42.1 nM	49.8 nM	68.8 nM	74 nM	91.9 nM	212 nM	425 nM	236 nM	59.1 nM	40 nM	IC50 (IMR-32; imr-32): 41.4 nM; IC50 (CHO-K1; cho-k1): 416 nM; IC50 (MCF7 [2]): 97 nM; IC50 (NCI-H69): 74 nM
COc1cc(C2C(O)C(=O)N2c2ccc3c(c2)OCO3)cc(OC)c1OC (configuration not stated)	> 1000 nM													
COc1cc(N2C(=O)C(OC(C)=O)C2c2ccc(N(C)C)cc2)cc(OC)c1OC (configuration not stated)	520 nM													
COc1ccc(C2C(OC(C)=O)C(=O)N2c2cc(OC)c(OC)c(OC)c2)cn1 (configuration not stated)	> 1000 nM													
COc1ccc(C2C(O)C(=O)N2c2cc(OC)c(OC)c(OC)c2)cn1 (configuration not stated)	> 1000 nM													
COc1ccc(C2C(OC)C(=O)N2c2cc(OC)c(OC)c(OC)c2)cc1[N+](=O)[O-] (configuration not stated)		> 10000 nM	> 10000 nM	> 10000 nM	> 5000 nM	> 10000 nM	> 10000 nM	> 10000 nM	> 10000 nM	> 10000 nM	> 10000 nM	> 10000 nM	> 10000 nM	IC50 (IMR-32; imr-32): > 10000 nM
COc1ccc(C2C(O)C(=O)N2c2cc(OC)c(OC)c(OC)c2)cc1 (configuration not stated)	33 nM										509 nM			IC50 (MCF7 [2]): 62 nM; IC50 (NCI-H69): 47 nM
COc1cc(N2C(=O)C(OC(C)=O)C2c2ccc([N+](=O)[O-])o2)cc(OC)c1OC (configuration not stated)	811 nM													
